Data reported in patent publication US20190307740A1, “COMPOSITIONS AND METHODS FOR TREATMENT RELATED TO FALL AND FALL FREQUENCY IN NEURODEGENERATIVE DISEASES” (Neurocea, LLC, priority 2016, published 2019).
Where “and” joins values, the source holds several entries; their conditions need not be identical. Identical values can stand only once.

How the values were obtained:
[1] = system: subjects with idiopathic PD with LIDs
Description: (§1) The original UPDRS scale was used. […] In the UPDRS Part II, Question 13 is on Falling unrelated to Freezing. […] In Part II, Question 14 is on Freezing when Walking. This is a 5-point item and has two variables freezing and falls. […] Questions 13 and 14 were compared separately (Table 11).
The efficacy variables for LIDs were the mean change from baseline to week 10 in the UDysRS total score; UDysRS sub-scores (Table 12). An analysis of covariance (ANCOVA) combined features of regression and analysis of variance (ANOVA). In addition to the descriptive summary of each variable from baseline to endpoint, Least Square (LS) means standard errors and 95% Confidence intervals (CI) of each group, and the difference of LS means between the 2 treatment groups and its 95% CI are presented. A similar analysis was applied to comparisons between UPDRS Part II, UPDRS Part III.

[2] = system: subjects with idiopathic PD with LIDs; remark: listed apart in the source
Method: At the time the study was performed (2009), there was no FDA accepted instrument for measuring treatment efficacy for LIDs. Therefore, several secondary objectives were utilized to assess efficacy including the Unified Dyskinesia Rating Scale (UDysRS).
A total of 65 male and female subjects with idiopathic PD with LIDs were randomized in the study. The study consisted of 4 phases (FIG. 6A): screening phase (up to 3 weeks), double-blind treatment phase (10 weeks), taper phase (2 weeks), and follow-up phase (2 weeks). The approximate duration of the study for each subject was 17 weeks. […] During the double-blind treatment phase, dosing was begun at Visit 0 at 1 mg every 6 hours (total daily dose [TDD]=4 mg/day) and escalated upwards at 2-week intervals as follows: 2 mg every 6 hours (TDD=8 mg/day) at Visit 1 (Week 2); 4 mg every 6 hours (TDD=16 mg/day) at Visit 2 (Week 4); 6 mg every 6 hours (TDD=24 mg/day) at Visit 3 (Week 6). Subjects were maintained on 24 mg/day for 4 weeks. The subsequent taper phase (2 weeks total), beginning at Visit 4 (Week 10), consisted of 9 days of drug taper and 5 days off drug prior to Visit 5 (final safety visit). […] Ondansetron was provided by the sponsor and dispensed with each dose escalation step with instructions to use it for nausea and vomiting only during the first 4 days following dose initiation or escalation. […] No other dose down-titration was allowed.
Efficacy was measured with the Unified Dyskinesia Rating Scale (UDysRS), a semi-quantitative assessment, FDA-validated instrument to assess […] dyskinesia in PD. […] Dosing was begun at 1 mg every 6 hours to a final dose of 24 mg per day. Patients who tolerated a total daily dose of at least 16 mg per day continued in the study.
Subjects were maintained on 24 mg/day for 4 weeks. The subsequent taper phase (2 weeks total), beginning at visit 4 (Week 10), consisted of 9 days of drug taper and 5 days off drug prior to Visit 5 (final safety visit). […] No other down-titration was allowed.
LIDs were assessed by the UDysRS, the main measure of LIDs (Table 12). […] The study was conducted in accordance with the Declaration of Helsinki and Good Clinical Practice Guidelines. All sites received approval from an institutional review board and written informed consent was obtained from each patient prior to participation.

[3] = system: subjects with idiopathic PD with LIDs; remark: listed apart in the source
Description: This post hoc analysis was inclusive of patients having baseline scores of […] for each of UPDRS Part II Question 13, Part II Question 14, and Part III Item 30.
as §1
For falls (UPDRS Part II, Question 13), a 5-point scale was used: 0: No falls to 4: falls more than once per day. For FOG and falls related to FOG (Question 14), a 5-point scale was used: 0: No FOG to 3 or 4: frequent falls from FOG. […] Analysis utilized Fisher's exact 2-tailed test. Improvement or worsening over baseline was calculated from the last treatment visit (Table 11).
This post hoc analysis was inclusive of patients having screening and/or baseline scores of greater than 0 for each of UPDRS Part II Question 13, Part II Question 14, and Part III Item 30.
Question 13—Falling Unrelated to Freezing • 0=None; • 1=Rare falling; • 2=Occasionally falls, less than once per day; • 3=Falls an average of once daily; • 4=Falls more than once daily.
For the purposes of this alternative post hoc analysis, only patients having a screening or baseline score of 2 or more, i.e., occasional freezing when walking or occasional falls, less than once per day, were considered to have experienced episodes of freezing and/or falling. Additionally, scores of patients with a screening or baseline score of 1 were set to 0, i.e., no freezing when walking or no falls. All patients were included in the analysis regardless of their status during the study, with the last observation carried forward.

[4] = baseline to week 10, of 30 patients

For `CN1CCCC1c1cccnc1.O=C(O)C(O)C(O)C(=O)O` (centres unmarked) [NP002, Nicotine Bitartrate], the “Difference in LS Means, UPDRS Part III” value ([1]; NP002 versus placebo, p 0.337) was −18.3 ± 1.8, the “Difference in LS Means, UPDRS Part II” value ([1]; NP002 versus placebo, p 0.631) was 10.1 ± 0.96 and the “UPDRS II Change” value ([1]; baseline to 10 weeks) was 2.8 ± 5.2. The “UPDRS III Change” value ([1]; baseline to 10 weeks) was 2.0 ± 7.5, the “UPDRS II at Baseline” value ([1]; before treatment, n=35) was 13.1 ± 6.0 and the “UPDRS III at Baseline” value ([1]; before treatment, n=35) was 20.0 ± 8.8. For the same compound, the “UPDRS II at 10 Weeks” value ([1]; n=30) was 10.1 ± 5.3, the “UPDRS III at 10 Weeks” value ([1]; n=30) was 17.3 ± 10.6 and the “UPDRS Part II and Part III after treatment vs placebo” value ([1]; p>0.34) was “no significant differences”. The “Study discontinuation, primary reason adverse event, n (%)” value ([2]; 35 randomized) was 6 n (%) and 6 (17.1) n (%), the Constipation ([2]; N = 35) was 5 (14.3) n (%) and the Diarrhea ([2]; N = 35) was 2 (5.7) n (%). For the same compound, the Dizziness ([2]; N = 35) was 7 (20.0) n (%), the Fatigue ([2]; N = 35) was 3 (8.6) n (%) and the Headache ([2]; N = 35) was 2 (5.7) n (%). For the same compound, the Insomnia ([2]; N = 35) was 0 (0.0) n (%), the Nausea ([2]; N = 35) was 13 (37.1) n (%) and the Nightmare ([2]; N = 35) was 2 (5.7) n (%). For the same compound, the “Number (%) of subject with any AE” value ([2]; N = 35) was 26 (74.3) n (%), the Pain ([2]; N = 35) was 3 (8.6) n (%) and the Pain in extremity ([2]; N = 35) was 2 (5.7) n (%). For the same compound, the Tremor ([2]; N = 35) was 2 (5.7) n (%), the Vomiting ([2]; N = 35) was 4 (11.4) n (%) and the “Subjects who required dose reduction or discontinuation of study treatment, n (%)” value ([2]; because of adverse events, 35 randomized) was 7 (20.0) n (%). For the same compound, the serum cotinine levels ([2]; compliance check) was “paralleled dosing of nicotine”, the “most frequent adverse event” value ([2]; in vivo) was “nausea” and the “number of adverse events reported” value ([2]; in vivo) was 45. The “overall safety and tolerability” value ([2]; oral 4 times/day up to 24 mg/day, 10 weeks) was “safe and well tolerated, other than nausea”, the “falling vs placebo at week 10” value ([3]; Question 13 score of 2 or greater at screening or baseline, Wilcoxon-Mann-Whitney p=0.3250) was “directional signal towards reduced falling” and the “patients with either a reduction or absence of falls” value ([3]; active phase of the study) was roughly 87%. The “Falls (Question 13): patients with No Change” value [3, 4] was 15, the “Falls (Question 13): patients with change +1” value [3, 4] was 1 and the “Falls (Question 13): patients with change +2” value [3, 4] was 0. The “Falls (Question 13): patients with change +3” value [3, 4] was 0, the “Falls (Question 13): patients with change −1” value [3, 4] was 7 and the “Falls (Question 13): patients with change −2” value [3, 4] was 5. For the same compound, the “Falls (Question 13): patients with change −3” value ([3]; baseline to week 10, of 30 patients, negative = improvement) was 2, the “patients with no falls during the study” value ([3]; number of 30 patients) was 12 and the “patients with a reduction in falls” value ([3]; of 30 patients, p=0.004 vs placebo) was 47%. The “improvement in falling vs placebo at week 10” value ([3]; score >0 at screening/baseline, Fisher's exact test p=0.057) was “statistically significant improvement in falling” and the “patients who reported fewer falls (UPDRS Part II, Question 13)” value ([3]; screening and/or baseline score >0, follow-up to visit 3 or 4) was 14 of 15.
